{"source": "patent US8178516B2", "about": "“Compositions and method for treatment of chronic inflammatory diseases” (Sylvan Labs, LLC, priority 1992, dated 2012)", "origin": "cited, not measured here", "key": {"myocardial glutathione": {"test_system": "myocardial glutathione", "settings": "subsequent to experimental ischemia and reperfusion"}, "[1]": {"test_system": "plasma cysteine, plasma glutathione and red blood cell glutathione", "settings": "in vivo"}}, "data": [{"smiles": "CC(=O)N[C@@H](CS)C(=O)O", "note": "[N-acetylcysteine]", "values": [{"measurement": "increase in myocardial glutathione", "setting": "myocardial glutathione", "result": 100, "unit": "fold"}, {"measurement": "levels of plasma cysteine, plasma glutathione and red blood cell glutathione", "setting": "[1]", "result": "increase"}]}]}
